Where a name gives a salt, the structure may show the parent alone. One block for each molecule: values may come before it.
Assays:
[1] = tested on: platelet aggregation induced by collagen; assay: Ex vivo/vitro anti-platelet-aggregating activity in guinea pigs after gastric administration; set-up: species or system guinea pig; settings: for % of g.r. inhibition guinea pig ex vivo d = 150 mg/kg −1 h: administered 1 h before blood is taken; for % of g.r. inhibition guinea pig ex vivo d = 150 mg/kg −2 h: administered 2 h before blood is taken; for anti-aggregating action ex-vivo in guinea pigs, oral dose 10 mg/kg, 1h: administered 1h before the aggregation test
Procedure: (§1) A study of the inhibitory activity of the compounds of formula I on platelet aggregation was carried out in vitro, i.e. by direct contact of solutions of variable concentrations of the compounds with platelets freshly separated from a sample of whole blood, taken under standardized conditions, from laboratory animals (guinea pigs) and from healthy human subjects who have not received any substances or drugs that might interfere with blood clotting. The anti-platelet-aggregating activity was also studied ex vivo/vitro, i.e. after administration of the substances claimed in guinea pigs to measure the intensity and duration of the anti-aggregating action induced by the fraction of the test product absorbed and circulating in the blood.
2. ex vivo/vitro Pharmacological Study in Guinea Pigs
Evaluation of the anti-platelet-aggregating activity of the compounds is carried out in the same guinea pigs as those mentioned above (Dunkin-Hartley strain). The administration of each product in a range of doses from 150 mg/kg to 10 mg/kg and of each vehicle (5 ml/kg) is carried out via the gastric route (g.r.) 1h or 2h or 4h or 6h or 8h or 12h before blood is taken from the guinea pigs fasted the day before. The allocation of the treatments to the animals is random.
The blood is taken and then treated under the same conditions as those described above for the in vitro studies.
The results of the inhibition of the platelet aggregation obtained for each test concentration make it possible to calculate the IC50 concentration of each test product and the kinetics of the inhibitory effect and its duration of action.

[2] = tested on: Guinea Pig Platelets; assay: In vitro inhibition of collagen-induced platelet aggregation, guinea pig platelet-rich plasma; format: cell-based; settings: guinea pig PRP, collagen 1 μg/ml, 3 minutes of contact at 37° C.
Procedure: as §1
1.1. Studies on Guinea Pig Platelets
Blood is taken by intracardiac puncture from male Dunkin-Hartley guinea pigs (weighing about 330 g), at a rate of 4.5 ml per 0.5 ml of trisodium citrate (concentration of the aqueous solution: 1.55%) in order to prevent all trace of clotting. The platelet-rich plasma (PRP) is obtained by centrifuging the tubes of whole blood for 15 minutes at 150 g.
The PRPs are collected as. “pools”. The platelets contained in these pools are counted using a Coulter ZM haematology automatic device: if necessary, a dilution is carried out in order for the platelet concentration in the plasma to be between 200,000 and 400,000 platelets/mm^3. Simultaneously, other samples of these pools serve to prepare the platelet-poor plasma (PPP) by centrifugation at 1,500 g for 15 minutes.
The kinetic study of the platelet aggregation is carried out by adding a collagen solution (1 μg/ml) to a volume of PRP, using a Chrono-log Corporation aggregometer (490-D1 or 560 VS) which uses an optical detection of the appearance of the thrombus.
The measurements of the aggregation inhibition are carried out after 3 minutes of contact at 37° C. with agitation.

[3] = Cavia porcellus, Platelet, 0.05 h

Molecule: CCOC(=O)CC(NC(=O)CN1CCN(c2ccc(C(=N)N)cc2)CC1=O)C(C)(C)C (stereo not shown) [Example 25, Ethyl 3-{[2-(4-{4-[amino(imino)methyl]phenyl}-2-oxopiperazino)acetyl]amino}-4,4-dimethylpentanoate acetate]
- IC50 [2, 3]: 440 µM

Molecule: Ethyl 3-{[2-(4-{4-[amino(hydroxyimino)methyl]phenyl}-2-oxopiperazino)acetyl]amino}-3-(pyridyl)propanoate [Example 5]
- % of g.r. inhibition guinea pig ex vivo d = 150 mg/kg −1 h [1]: −72%
- % of g.r. inhibition guinea pig ex vivo d = 150 mg/kg −2 h [1]: −75%
- IC50 [2]: 100 µM

Molecule: CCOC(=O)CC(CCc1ccccc1)NC(=O)CN1CCN(c2ccc(C(N)=NO)cc2)CC1=O (stereo not shown) [Example 7, Ethyl 3-{[2-(4-{4-[amino(hydroxyimino)methyl]phenyl}-2-oxopiperazino)acetyl]amino}-5-phenylpentanoate]
- anti-aggregating action ex-vivo in guinea pigs, oral dose 10 mg/kg, 1h ([1]; 10 mg/kg): 72%

Molecule: CCOC(=O)CC(NC(=O)CN1CCN(c2ccc(C(N)=NO)cc2)CC1=O)c1ccc2c(c1)OCO2 (stereo not shown) [Example 3, Ethyl 3-{[2-(4-{4-[amino(hydroxyimino)methyl]phenyl}-2-oxopiperazino)acetyl]amino}-3-(1,3-benzodioxol-5-yl)propanoate]
- anti-aggregating action ex-vivo in guinea pigs, oral dose 10 mg/kg, 1h ([1]; 10 mg/kg): 69%
- anti-aggregating action ex-vivo in guinea pigs, oral dose 10 mg/kg, 2h ([1]; 10 mg/kg, administered 2h before the aggregation test): 72%
- % of g.r. inhibition guinea pig ex vivo d = 150 mg/kg −1 h [1]: −72%
- % of g.r. inhibition guinea pig ex vivo d = 150 mg/kg −2 h [1]: −69%

Molecule: CCOC(=O)CC(CC(C)C)NC(=O)CN1CCN(c2ccc(C(=N)N)cc2)CC1=O (stereo not shown) [Example 24, Ethyl 3-{[2-(4-{4-[amino(imino)methyl]phenyl}-2-oxopiperazino)acetyl]amino}-5-methylhexanoate acetate]
- IC50 [2, 3]: 4.6 µM

Molecule: CCOC(=O)CC(NC(=O)CN1CCN(c2ccc(C(=N)N)cc2)CC1=O)C(C)C (stereo not shown) [Example 26, Ethyl 3-{[2-(4-{4-[amino(imino)methyl]phenyl}-2-oxopiperazino)acetyl]amino}-4-methylpentanoate acetate]
- IC50 [2, 3]: 4.5 µM

Molecule: CCOC(=O)CC(NC(=O)CN1CCN(c2ccc(C(=N)N)cc2)CC1=O)C1CCCCC1 (stereo not shown) [Example 23, Ethyl 3-{[2-(4-{4-[amino(imino)methyl]phenyl}-2-oxopiperazino)acetyl]amino}-3-cyclohexylpropanoate acetate]
- IC50 [2, 3]: 46 µM

The next lines start with results.

- IC50 [2, 3]: 38 µM
Molecule: CC(=O)O.CCOC(=O)CCNC(=O)CN1CCN(c2ccc(C(=N)N)cc2)C(=O)C1 [Example 27, Ethyl 3-{[2-(4-{4-[amino(imino)methyl]phenyl}-3-oxopiperazino)acetyl]amino}propanoate acetate]
- % of g.r. inhibition guinea pig ex vivo d = 150 mg/kg −1 h [1]: −8%
- % of g.r. inhibition guinea pig ex vivo d = 150 mg/kg −2 h [1]: −9%

- IC50 [2, 3]: 2.4 µM
Molecule: CCOC(=O)CC(CCc1ccccc1)NC(=O)CN1CCN(c2ccc(C(=N)N3CCCCC3)cc2)CC1=O (stereo not shown) [Example 32, Ethyl 3-{[2-(4-{4-[imino(piperidino)methyl]phenyl}-2-oxopiperazino)acetyl]amino}-5-phenylpentanoate]

- IC50 [2, 3]: 0.65 µM
Molecule: CCOC(=O)CC(CCc1ccccc1)NC(=O)CN1CCN(c2ccc(C(=N)N3CCOCC3)cc2)CC1=O (stereo not shown) [Example 33, Ethyl 3-{[2-{4-{4-[imino(morpholino)methyl]phenyl}-2-oxopiperazino)acetyl]amino)-5-phenylpentanoate]

- IC50 [2, 3]: 0.99 µM
Molecule: CCOC(=O)CC(NC(=O)CN1CCN(c2ccc(C(=N)N3CCCCC3)cc2)CC1=O)c1ccc2c(c1)OCO2 (stereo not shown) [Example 34, Ethyl 3-(1,3-benzodioxol-5-yl)-3-{[2-(4-{4-[imino(piperidino)methyl]phenyl}-2-oxopiperazino)-acetyl]amino}propanoate hydrochloride]

- IC50 [2, 3]: 0.47 µM
Molecule: CCOC(=O)CC(NC(=O)CN1CCN(c2ccc(C(=N)N3CCOCC3)cc2)CC1=O)c1ccc2c(c1)OCO2 (stereo not shown) [Example 35, Ethyl 3-(1,3-benzodioxol-5-yl)-3-{[2-(4-{4-[imino-(morpholino)methyl]phenyl}-2-oxopiperazino)acetyl]-amino}propanoate hydrochloride]

Reference: patent publication US6344456B1, “Piperazinone derivatives and their uses” (Laboratoire L. Lafon, priority 1998, dated 2002)
